In ChEMBL document CHEMBL1201862, “PubChem BioAssay data set” (2004):
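48-hour exposure; five concentrations; linearly interpolated endpoints. GI50 is the concentration that inhibits growth by half.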 Activity calls are given as the source filed them. No stated cut-off is given here; in the data, active = GI50 up to about 1.1 µM and inactive = higher.

Columns and labels:
Assay in all cases: inhibition of tumour cell growth, NCI panel, 48 h
[1] = system: EKVX
[2] = system: HCC 2998
[3] = system: DLD-1
[4] = system: M14
[5] = system: COLO 205
[6] = system: HOP-92
[7] = system: SK-MEL-28
[8] = system: 786-0
[9] = system: UACC-62
[10] = system: HL-60
[11] = system: SK-MEL-5
[12] = system: SF-539
[13] = system: A498
[14] = system: HCT-15
[15] = system: SN12C
[16] = system: OVCAR-4
[17] = system: ACHN
[18] = system: SR
[19] = system: T47D
[20] = system: PC-3

Compound | GI50 [1] | GI50 [2] | GI50 [3] | GI50 [4] | GI50 [5] | GI50 [6] | GI50 [7] | GI50 [8] | GI50 [9] | GI50 [10] | GI50 [11] | GI50 [12] | GI50 [13] | GI50 [14] [µM] | GI50 [15] | GI50 [16] | GI50 [17] | GI50 [18] | GI50 [19] | GI50 [20]
COC(=O)N/N=C(\C)CC(=O)Nc1ccc(Cl)cc1 | 46.7 µM (inactive) | > 100 µM (inactive) | > 100 µM (inactive) | > 100 µM (inactive) | > 100 µM (inactive) | > 100 µM (inactive) | > 100 µM (inactive) | > 100 µM (inactive) | > 100 µM (inactive) | > 100 µM (inactive) | > 100 µM (inactive) | > 100 µM (inactive) | > 100 µM (inactive) |  |  |  |  |  |  | 
Cn1nc2ccccc2cc1=O | > 100 µM (inactive) | > 100 µM (inactive) | > 100 µM (inactive) | > 100 µM (inactive) | > 100 µM (inactive) | > 100 µM (inactive) | > 100 µM (inactive) | > 100 µM (inactive) | > 100 µM (inactive) |  | > 100 µM (inactive) | > 100 µM (inactive) | > 100 µM (inactive) | > 100 | > 100 µM (inactive) | > 100 µM (inactive) | > 100 µM (inactive) |  |  | 
COC(=O)/C(=C/CC(N=C(c1ccccc1)c1ccccc1)C(=O)OC)N=C(c1ccccc1)c1ccccc1 (centres undefined) | > 100 µM (inactive) | > 100 µM (inactive) | > 100 µM (inactive) | > 100 µM (inactive) | > 100 µM (inactive) |  | > 100 µM (inactive) | > 100 µM (inactive) | > 100 µM (inactive) | > 100 µM (inactive) | > 100 µM (inactive) |  |  | > 100 | > 100 µM (inactive) | > 100 µM (inactive) | > 100 µM (inactive) | > 100 µM (inactive) |  | 
CN(C)C(=Nc1nc(N(C)C)s[s+]1)N(C)C | > 100 µM (inactive) | > 100 µM (inactive) | > 100 µM (inactive) | > 100 µM (inactive) |  | > 100 µM (inactive) | > 100 µM (inactive) | > 100 µM (inactive) | > 100 µM (inactive) | > 100 µM (inactive) | > 100 µM (inactive) | > 100 µM (inactive) | > 100 µM (inactive) | > 100 | > 100 µM (inactive) | > 100 µM (inactive) | > 100 µM (inactive) |  |  | 
CC(=O)SC(C[N+](=O)[O-])c1ccc2c(c1)OCO2 (centres undefined) | 21.4 µM (inactive) | 1.73 µM (inactive) |  | 5.9 µM (inactive) | 6.37 µM (inactive) | 12 µM (inactive) | 3.15 µM (inactive) | 3.64 µM (inactive) | 5.62 µM (inactive) | 1.97 µM (inactive) | 6.95 µM (inactive) | 2.37 µM (inactive) | 3.02 µM (inactive) | 3.32 | 5.73 µM (inactive) | 13.6 µM (inactive) | 8.81 µM (inactive) | 2.5 µM (inactive) | 17.1 µM (inactive) | 12.7 µM (inactive)
CC(=O)Nc1ccc(-c2nnc(SCC(=O)Nc3ccc(Cl)cc3Cl)o2)cc1 |  | > 100 µM (inactive) | 35.1 µM (inactive) | 29.3 µM (inactive) | 28.6 µM (inactive) |  | > 100 µM (inactive) | 16.1 µM (inactive) |  | 27.8 µM (inactive) | 19.5 µM (inactive) | 33 µM (inactive) | 40.8 µM (inactive) | 38.5 | 20.2 µM (inactive) | 37.4 µM (inactive) | 44.6 µM (inactive) |  |  | 
COc1cc2c(cc1OC)C1c3ccccc3CCCN1CC2 (centres undefined) | > 100 µM (inactive) | > 100 µM (inactive) |  | > 100 µM (inactive) | > 100 µM (inactive) | 33 µM (inactive) | > 100 µM (inactive) | > 100 µM (inactive) | > 100 µM (inactive) | 41.3 µM (inactive) | > 100 µM (inactive) | > 100 µM (inactive) | > 100 µM (inactive) | > 100 | > 100 µM (inactive) | > 100 µM (inactive) | > 100 µM (inactive) | > 100 µM (inactive) | > 100 µM (inactive) | > 100 µM (inactive)
c1ccc2c(c1)CCN1CCc3c([nH]c4ccccc34)C21 (centres undefined) | 28.2 µM (inactive) | 17.2 µM (inactive) |  | 16.7 µM (inactive) | 21.4 µM (inactive) | 22.2 µM (inactive) | 19.1 µM (inactive) | 38.3 µM (inactive) | 31.6 µM (inactive) | 13.7 µM (inactive) | 15.1 µM (inactive) | 49 µM (inactive) | 22.9 µM (inactive) | 36.9 | 32.7 µM (inactive) | 35.2 µM (inactive) | 31.3 µM (inactive) | 24.4 µM (inactive) | 32.5 µM (inactive) | 26.6 µM (inactive)
OC12CC/C(=N/OCc3ccccc3)CC1c1ccccc12 (centres undefined) | > 100 µM (inactive) | > 100 µM (inactive) | > 100 µM (inactive) | > 100 µM (inactive) | > 100 µM (inactive) |  | > 100 µM (inactive) | > 100 µM (inactive) | > 100 µM (inactive) | > 100 µM (inactive) | > 100 µM (inactive) | > 100 µM (inactive) |  | > 100 | > 100 µM (inactive) | > 100 µM (inactive) | > 100 µM (inactive) |  |  | 
COc1nc(N)c(/N=C/C(OC(C)=O)C(OC(C)=O)C(COC(C)=O)OC(C)=O)c(=O)n1C (centres undefined) | > 100 µM (inactive) | > 100 µM (inactive) |  | > 100 µM (inactive) | > 100 µM (inactive) | > 100 µM (inactive) | > 100 µM (inactive) | > 100 µM (inactive) | > 100 µM (inactive) | > 100 µM (inactive) | > 100 µM (inactive) | > 100 µM (inactive) | > 100 µM (inactive) | > 100 | > 100 µM (inactive) | > 100 µM (inactive) | > 100 µM (inactive) | > 100 µM (inactive) | > 100 µM (inactive) | > 100 µM (inactive)
N#CC1=C(N)OC2=C(CCCc3ccccc32)C1c1ccc([N+](=O)[O-])cc1 (centres undefined) | 13.8 µM (inactive) | 13.6 µM (inactive) |  | 13.6 µM (inactive) | 16.1 µM (inactive) | 19.1 µM (inactive) | 15.8 µM (inactive) | 18.1 µM (inactive) | 11.2 µM (inactive) | 5.93 µM (inactive) | 14.3 µM (inactive) | 19.2 µM (inactive) | 12 µM (inactive) | 12.2 | 15.1 µM (inactive) | 15.8 µM (inactive) | 17.9 µM (inactive) | 10.9 µM (inactive) | 8.18 µM (inactive) | 17.1 µM (inactive)
COC12C=CC(C=C1C#N)CC2.COC12C=CC(CC1)CC2=O (centres undefined) | > 100 µM (inactive) | > 100 µM (inactive) |  | > 100 µM (inactive) | > 100 µM (inactive) | > 100 µM (inactive) | > 100 µM (inactive) | > 100 µM (inactive) | > 100 µM (inactive) | > 100 µM (inactive) | > 100 µM (inactive) | > 100 µM (inactive) | > 100 µM (inactive) | > 100 | > 100 µM (inactive) | > 100 µM (inactive) | > 100 µM (inactive) | > 100 µM (inactive) | > 100 µM (inactive) | > 100 µM (inactive)
O=C1C=C(Nc2ccccc2C(=O)CC(=O)C(=O)Nc2cccc([N+](=O)[O-])c2)c2ccccc2C1=O | > 100 µM (inactive) | > 100 µM (inactive) | 21.9 µM (inactive) | 41.5 µM (inactive) | > 100 µM (inactive) | 37.1 µM (inactive) | 46 µM (inactive) | 29.4 µM (inactive) | 26.6 µM (inactive) | 3.38 µM (inactive) | 12.9 µM (inactive) | > 100 µM (inactive) | > 100 µM (inactive) | 23.8 | 23.4 µM (inactive) | 26.9 µM (inactive) | > 100 µM (inactive) |  |  | 
CC(NC1=CC(=O)c2ncccc2C1=O)C(O)c1ccccc1 (centres undefined) | 12.6 µM (inactive) | 10.2 µM (inactive) |  | 2.57 µM (inactive) | 16 µM (inactive) | 13.2 µM (inactive) | 3.32 µM (inactive) | 8.69 µM (inactive) | 2.02 µM (inactive) | 3.44 µM (inactive) | 1.18 µM (inactive) | 6.04 µM (inactive) | 13.4 µM (inactive) | 3.91 | 5.18 µM (inactive) | 6.78 µM (inactive) | 7 µM (inactive) | 8.36 µM (inactive) | 21.5 µM (inactive) | 12.1 µM (inactive)
CC1=NN(C(=O)CC(=O)Nc2ccccc2Cl)C(=O)C1/N=N/c1ccc(C(=O)O)cc1 (centres undefined) | 4.46 µM (inactive) | > 100 µM (inactive) |  | > 100 µM (inactive) | > 100 µM (inactive) | 19.6 µM (inactive) | > 100 µM (inactive) | > 100 µM (inactive) | > 100 µM (inactive) | > 100 µM (inactive) | > 100 µM (inactive) | > 100 µM (inactive) | > 100 µM (inactive) | > 100 | > 100 µM (inactive) | > 100 µM (inactive) | > 100 µM (inactive) | 51.1 µM (inactive) | 53.2 µM (inactive) | > 100 µM (inactive)
O=c1[nH]nc2c3n[nH]c(=O)n3c3ccccc3n12 | 93.8 µM (inactive) | > 100 µM (inactive) | > 100 µM (inactive) | > 100 µM (inactive) | > 100 µM (inactive) | 63.7 µM (inactive) | > 100 µM (inactive) | > 100 µM (inactive) | > 100 µM (inactive) |  | > 100 µM (inactive) | 69.8 µM (inactive) | 47.1 µM (inactive) | > 100 | > 100 µM (inactive) | > 100 µM (inactive) | > 100 µM (inactive) |  |  | 
